{"source": "the NIST ThermoML archive (doi:10.1021/acs.jced.8b00037)", "experiment": "molar heat capacity at saturation pressure", "conditions": "Liquid, Vacuum adiabatic calorimetry", "note": "Numbers after ± are expanded uncertainties.", "data": [{"compound": "COC", "note": "[dimethyl ether]", "values": [{"measurement": "molar heat capacity", "setting": "133.47 K", "value": "99.41 ± 0.73", "unit": "J/K/mol"}, {"measurement": "molar heat capacity", "setting": "136.11 K", "value": "98.99 ± 0.72", "unit": "J/K/mol"}, {"measurement": "molar heat capacity", "setting": "138.75 K", "value": "99.09 ± 0.73", "unit": "J/K/mol"}, {"measurement": "molar heat capacity", "setting": "141.37 K", "value": "98.75 ± 0.72", "unit": "J/K/mol"}, {"measurement": "molar heat capacity", "setting": "143.97 K", "value": "98.64 ± 0.72", "unit": "J/K/mol"}, {"measurement": "molar heat capacity", "setting": "146.56 K", "value": "98.99 ± 0.72", "unit": "J/K/mol"}, {"measurement": "molar heat capacity", "setting": "149.14 K", "value": "99.23 ± 0.73", "unit": "J/K/mol"}, {"measurement": "molar heat capacity", "setting": "151.7 K", "value": "98.99 ± 0.72", "unit": "J/K/mol"}, {"measurement": "molar heat capacity", "setting": "154.26 K", "value": "98.77 ± 0.72", "unit": "J/K/mol"}, {"measurement": "molar heat capacity", "setting": "156.8 K", "value": "98.65 ± 0.72", "unit": "J/K/mol"}, {"measurement": "molar heat capacity", "setting": "159.33 K", "value": "98.43 ± 0.72", "unit": "J/K/mol"}, {"measurement": "molar heat capacity", "setting": "161.84 K", "value": "98.67 ± 0.72", "unit": "J/K/mol"}, {"measurement": "molar heat capacity", "setting": "164.35 K", "value": "98.6 ± 0.72", "unit": "J/K/mol"}, {"measurement": "molar heat capacity", "setting": "166.84 K", "value": "98.46 ± 0.72", "unit": "J/K/mol"}, {"measurement": "molar heat capacity", "setting": "169.32 K", "value": "98.32 ± 0.72", "unit": "J/K/mol"}, {"measurement": "molar heat capacity", "setting": "171.79 K", "value": "98.39 ± 0.72", "unit": "J/K/mol"}, {"measurement": "molar heat capacity", "setting": "174.26 K", "value": "98.44 ± 0.72", "unit": "J/K/mol"}, {"measurement": "molar heat capacity", "setting": "176.71 K", "value": "98.47 ± 0.72", "unit": "J/K/mol"}, {"measurement": "molar heat capacity", "setting": "179.15 K", "value": "98.73 ± 0.72", "unit": "J/K/mol"}, {"measurement": "molar heat capacity", "setting": "181.58 K", "value": "98.78 ± 0.72", "unit": "J/K/mol"}, {"measurement": "molar heat capacity", "setting": "184 K", "value": "98.54 ± 0.72", "unit": "J/K/mol"}, {"measurement": "molar heat capacity", "setting": "186.41 K", "value": "98.8 ± 0.72", "unit": "J/K/mol"}, {"measurement": "molar heat capacity", "setting": "188.82 K", "value": "98.98 ± 0.72", "unit": "J/K/mol"}, {"measurement": "molar heat capacity", "setting": "191.21 K", "value": "98.9 ± 0.72", "unit": "J/K/mol"}, {"measurement": "molar heat capacity", "setting": "193.6 K", "value": "99.11 ± 0.73", "unit": "J/K/mol"}, {"measurement": "molar heat capacity", "setting": "195.98 K", "value": "98.99 ± 0.72", "unit": "J/K/mol"}, {"measurement": "molar heat capacity", "setting": "198.36 K", "value": "99.02 ± 0.72", "unit": "J/K/mol"}, {"measurement": "molar heat capacity", "setting": "200.73 K", "value": "99.09 ± 0.73", "unit": "J/K/mol"}, {"measurement": "molar heat capacity", "setting": "203.08 K", "value": "99.08 ± 0.73", "unit": "J/K/mol"}, {"measurement": "molar heat capacity", "setting": "205.44 K", "value": "99.32 ± 0.73", "unit": "J/K/mol"}, {"measurement": "molar heat capacity", "setting": "207.79 K", "value": "99.89 ± 0.73", "unit": "J/K/mol"}, {"measurement": "molar heat capacity", "setting": "210.13 K", "value": "100.15 ± 0.73", "unit": "J/K/mol"}, {"measurement": "molar heat capacity", "setting": "212.46 K", "value": "99.96 ± 0.73", "unit": "J/K/mol"}, {"measurement": "molar heat capacity", "setting": "214.79 K", "value": "100.15 ± 0.73", "unit": "J/K/mol"}, {"measurement": "molar heat capacity", "setting": "217.12 K", "value": "100.26 ± 0.73", "unit": "J/K/mol"}, {"measurement": "molar heat capacity", "setting": "219.43 K", "value": "100.09 ± 0.73", "unit": "J/K/mol"}, {"measurement": "molar heat capacity", "setting": "221.74 K", "value": "100.12 ± 0.73", "unit": "J/K/mol"}, {"measurement": "molar heat capacity", "setting": "224.04 K", "value": "100.21 ± 0.73", "unit": "J/K/mol"}, {"measurement": "molar heat capacity", "setting": "226.34 K", "value": "100.65 ± 0.74", "unit": "J/K/mol"}, {"measurement": "molar heat capacity", "setting": "228.64 K", "value": "101.1 ± 0.74", "unit": "J/K/mol"}, {"measurement": "molar heat capacity", "setting": "230.92 K", "value": "101.1 ± 0.74", "unit": "J/K/mol"}, {"measurement": "molar heat capacity", "setting": "233.21 K", "value": "101.41 ± 0.74", "unit": "J/K/mol"}, {"measurement": "molar heat capacity", "setting": "235.49 K", "value": "101.75 ± 0.74", "unit": "J/K/mol"}, {"measurement": "molar heat capacity", "setting": "237.76 K", "value": "101.68 ± 0.74", "unit": "J/K/mol"}, {"measurement": "molar heat capacity", "setting": "240.03 K", "value": "101.94 ± 0.74", "unit": "J/K/mol"}, {"measurement": "molar heat capacity", "setting": "242.31 K", "value": "102.15 ± 0.75", "unit": "J/K/mol"}, {"measurement": "molar heat capacity", "setting": "244.57 K", "value": "102.6 ± 0.75", "unit": "J/K/mol"}, {"measurement": "molar heat capacity", "setting": "246.84 K", "value": "102.48 ± 0.75", "unit": "J/K/mol"}, {"measurement": "molar heat capacity", "setting": "249.11 K", "value": "103.29 ± 0.75", "unit": "J/K/mol"}, {"measurement": "molar heat capacity", "setting": "251.38 K", "value": "102.81 ± 0.75", "unit": "J/K/mol"}, {"measurement": "molar heat capacity", "setting": "253.64 K", "value": "103 ± 0.75", "unit": "J/K/mol"}, {"measurement": "molar heat capacity", "setting": "255.9 K", "value": "103.44 ± 0.76", "unit": "J/K/mol"}, {"measurement": "molar heat capacity", "setting": "258.16 K", "value": "103.81 ± 0.76", "unit": "J/K/mol"}, {"measurement": "molar heat capacity", "setting": "260.42 K", "value": "104.08 ± 0.76", "unit": "J/K/mol"}, {"measurement": "molar heat capacity", "setting": "262.68 K", "value": "104.75 ± 0.76", "unit": "J/K/mol"}, {"measurement": "molar heat capacity", "setting": "264.94 K", "value": "105.51 ± 0.77", "unit": "J/K/mol"}, {"measurement": "molar heat capacity", "setting": "267.2 K", "value": "105.91 ± 0.77", "unit": "J/K/mol"}, {"measurement": "molar heat capacity", "setting": "269.47 K", "value": "106.42 ± 0.78", "unit": "J/K/mol"}, {"measurement": "molar heat capacity", "setting": "271.72 K", "value": "106.14 ± 0.77", "unit": "J/K/mol"}, {"measurement": "molar heat capacity", "setting": "273.98 K", "value": "106.27 ± 0.77", "unit": "J/K/mol"}, {"measurement": "molar heat capacity", "setting": "276.24 K", "value": "107.11 ± 0.78", "unit": "J/K/mol"}, {"measurement": "molar heat capacity", "setting": "278.5 K", "value": "108 ± 0.79", "unit": "J/K/mol"}, {"measurement": "molar heat capacity", "setting": "280.77 K", "value": "108.08 ± 0.79", "unit": "J/K/mol"}, {"measurement": "molar heat capacity", "setting": "283.02 K", "value": "108.35 ± 0.79", "unit": "J/K/mol"}, {"measurement": "molar heat capacity", "setting": "285.29 K", "value": "108.89 ± 0.79", "unit": "J/K/mol"}, {"measurement": "molar heat capacity", "setting": "287.55 K", "value": "109.42 ± 0.8", "unit": "J/K/mol"}, {"measurement": "molar heat capacity", "setting": "289.82 K", "value": "109.46 ± 0.8", "unit": "J/K/mol"}, {"measurement": "molar heat capacity", "setting": "292.08 K", "value": "110 ± 0.8", "unit": "J/K/mol"}, {"measurement": "molar heat capacity", "setting": "294.36 K", "value": "110.71 ± 0.81", "unit": "J/K/mol"}, {"measurement": "molar heat capacity", "setting": "296.63 K", "value": "110.49 ± 0.8", "unit": "J/K/mol"}, {"measurement": "molar heat capacity", "setting": "298.9 K", "value": "111.38 ± 0.81", "unit": "J/K/mol"}, {"measurement": "molar heat capacity", "setting": "301.19 K", "value": "111.57 ± 0.81", "unit": "J/K/mol"}, {"measurement": "molar heat capacity", "setting": "303.45 K", "value": "112.35 ± 0.82", "unit": "J/K/mol"}, {"measurement": "molar heat capacity", "setting": "305.74 K", "value": "112.73 ± 0.82", "unit": "J/K/mol"}, {"measurement": "molar heat capacity", "setting": "308.02 K", "value": "113.5 ± 0.83", "unit": "J/K/mol"}, {"measurement": "molar heat capacity", "setting": "310.3 K", "value": "114.89 ± 0.83", "unit": "J/K/mol"}, {"measurement": "molar heat capacity", "setting": "312.58 K", "value": "115.6 ± 0.84", "unit": "J/K/mol"}, {"measurement": "molar heat capacity", "setting": "314.87 K", "value": "116.12 ± 0.84", "unit": "J/K/mol"}, {"measurement": "molar heat capacity", "setting": "317.16 K", "value": "116.12 ± 0.84", "unit": "J/K/mol"}, {"measurement": "molar heat capacity", "setting": "319.44 K", "value": "117.62 ± 0.85", "unit": "J/K/mol"}, {"measurement": "molar heat capacity", "setting": "323.96 K", "value": "119.09 ± 0.86", "unit": "J/K/mol"}, {"measurement": "molar heat capacity", "setting": "326.26 K", "value": "120.03 ± 0.87", "unit": "J/K/mol"}, {"measurement": "molar heat capacity", "setting": "328.57 K", "value": "120.51 ± 0.87", "unit": "J/K/mol"}, {"measurement": "molar heat capacity", "setting": "330.88 K", "value": "121.43 ± 0.88", "unit": "J/K/mol"}, {"measurement": "molar heat capacity", "setting": "333.2 K", "value": "121.96 ± 0.88", "unit": "J/K/mol"}, {"measurement": "molar heat capacity", "setting": "335.54 K", "value": "122.78 ± 0.89", "unit": "J/K/mol"}, {"measurement": "molar heat capacity", "setting": "337.89 K", "value": "122.8 ± 0.89", "unit": "J/K/mol"}, {"measurement": "molar heat capacity", "setting": "340.24 K", "value": "124.08 ± 0.9", "unit": "J/K/mol"}, {"measurement": "molar heat capacity", "setting": "342.62 K", "value": "124.9 ± 0.9", "unit": "J/K/mol"}, {"measurement": "molar heat capacity", "setting": "345 K", "value": "125.19 ± 0.91", "unit": "J/K/mol"}]}]}
